“And” between values parts separate entries of the source, which are not always exact repeats. Equal entries are not always repeated.
What was measured:
wt XylE = wt XylE (Escherichia coli, UniProt P0AGF4); test: biochemical; design: made in house; host or cells: E. coli BL21 DE3
Description: (§1) Reconstitution of purified proteins (2–20 mg/ml) was carried out with E. coli phospholipids (Avanti Polar Lipids, E. coli polar lipid extract). Preformed liposomes (0.2–2 ml, 10 mg/ml) were dissolved in 1% (w/v) n-octyl-β-D-glucoside, and the protein suspension was mixed on ice to a concentration of 0.2 mg protein/mg lipid (LPR 5).
(§2) Wt XylE, wt FucP, and the mutant proteins were reconstituted using overnight incubation in 400 mg/ml BioBeads (SM-2 Adsorbent Media, Bio-Rad) at 4 °C. After reconstitution, the samples were diluted to 2.5 mg/ml lipid concentration, frozen in liquid nitrogen, and stored at −80 °C. For wt LacY and mutant proteins, this procedure was not successful. We, therefore, applied the previously established n-octyl-β-D-glucoside dilution method (1:100) ([69]).
(§3) SSM measurements were performed as described ([20], [23]). After thawing the sample and sonication in a water bath, 30 μl of proteoliposomes (2.5 mg/ml lipid at LPR 5) was allowed to adsorb for 1 to 2 h to an octadecanethiol/phosphatidylcholine hybrid bilayer on a gold surface (the sensor).
(§4) For measurements, a single solution exchange configuration ([23]) was employed that consisted in three phases of 0.5 s duration each: Flow of nonactivating solution (NA), activating solution (A), and nonactivating solution (NA). Only the activating solution contained the sugar. When pH dependence is determined, pH of NA and A solutions during one experiment are kept constant. Between experiments using different pH values, the sensor was incubated at the new pH for 3 min to equilibrate the intraliposomal pH.
(§5) Instruments with different time resolution were used as required. […] Currents were recorded throughout the entire time and amplified with a current amplifier set to a gain of […] and a rise time of 10 ms (low time-resolution set up) or 3 ms (high time-resolution set up).
(§6) All NA solutions were buffered in 100 mM KPi at a given pH value. NA solutions used with LacY contained 1 mM DTT in addition. A solutions were made from NA solutions by adding the respective sugar at a given concentration to induce the symport reaction. Sugar concentration jumps initiated sugar-proton symport, and charge transfer was measured by capacitive coupling. Therefore, only transient currents were recorded.
(§7) Each dataset represented with error bars was generated by performing the same experiment on multiple sensors (n ≥ 3). Error bars represent standard deviations of the average value. When peak currents are averaged across sensors, datasets are normalized before averaging. When the protein catalyzes transport and PSS currents are negligible, the peak current of the transient represents a good approximation of the current generated by the steady-state symport activity of the transporter. In most cases, peak currents have been used to derive kinetic and thermodynamic parameters according to the equations given in Figure 2 (KM, Imax ∼ Vmax, Hill coefficient n), Figure 4 (KD and rate constants for sugar binding kon and release koff), and Figure 6 (pKa for proton binding and pKb for proton release). Reconstruction of transporter currents for analysis of biphasic currents has been performed as described previously ([70]). This is required when transport and PSS currents are observed at the same time.

E325A LacY = target: T1, E325A LacY (Escherichia coli, UniProt P02920, E325A); test: SSM-based electrophysiology, transport-deficient mutant E325A LacY (PSS currents, electrogenic binding); assay type: biochemical
T1 construct: made in house; host or cells: E. coli XL1-Blue
Description: as §1, §2, §3, §4, §5, §6, §7

wt LacY = target: T2, wt LacY (Escherichia coli, UniProt P02920); test: SSM-based electrophysiology, proteoliposomes with wt LacY; assay type: biochemical; conditions: pH 7.6
T2 construct: made in house; host or cells: E. coli XL1-Blue
T2 sequence (P02920 1-417): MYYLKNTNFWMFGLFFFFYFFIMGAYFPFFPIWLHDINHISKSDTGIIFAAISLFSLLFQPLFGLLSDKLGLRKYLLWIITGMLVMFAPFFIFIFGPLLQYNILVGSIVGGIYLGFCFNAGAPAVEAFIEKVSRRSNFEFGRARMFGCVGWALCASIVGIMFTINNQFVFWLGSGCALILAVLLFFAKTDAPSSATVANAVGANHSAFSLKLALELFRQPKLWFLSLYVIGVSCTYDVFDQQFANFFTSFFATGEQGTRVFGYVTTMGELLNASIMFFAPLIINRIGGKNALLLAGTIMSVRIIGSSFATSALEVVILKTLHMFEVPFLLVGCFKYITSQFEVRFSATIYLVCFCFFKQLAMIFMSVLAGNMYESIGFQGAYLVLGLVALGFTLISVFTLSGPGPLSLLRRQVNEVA
Description: as §1, §2, §3, §4, §5, §6, §7

wt FucP = target: T3, wt FucP (Escherichia coli, UniProt P11551); test: SSM-based electrophysiology, proteoliposomes with wt FucP; assay type: biochemical
T3 construct: made in house; host or cells: E. coli BL21 DE3
T3 sequence (P11551 1-438): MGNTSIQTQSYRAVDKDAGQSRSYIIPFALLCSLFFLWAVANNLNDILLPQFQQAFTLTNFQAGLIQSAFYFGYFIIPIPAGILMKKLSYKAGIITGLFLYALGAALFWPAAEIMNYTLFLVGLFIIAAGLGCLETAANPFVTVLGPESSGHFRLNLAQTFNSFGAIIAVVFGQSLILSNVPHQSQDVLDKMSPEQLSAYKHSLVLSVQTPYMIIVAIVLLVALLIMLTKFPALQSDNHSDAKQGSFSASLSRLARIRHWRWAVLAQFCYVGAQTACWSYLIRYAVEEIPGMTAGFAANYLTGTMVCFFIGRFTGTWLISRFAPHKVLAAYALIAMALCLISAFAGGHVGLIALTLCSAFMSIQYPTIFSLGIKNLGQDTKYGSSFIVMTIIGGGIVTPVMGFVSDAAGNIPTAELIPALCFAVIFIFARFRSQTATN
Description: as §1, §2, §3, §4, §5, §6, §7

Q175I/L297F XylE = target: T4, Q175I/L297F XylE (Escherichia coli, UniProt P0AGF4, L297F/Q175I); test: biochemical
T4 construct: made in house; host or cells: E. coli BL21 DE3
Description: as §1
as §2, with “For wt LacY and mutant proteins, this procedure was not successful.” left out
as §3, §4, §5, §6, §7

D27N XylE = target: T5, D27N XylE (Escherichia coli, UniProt P0AGF4, D27N); test: SSM-based electrophysiology, transport-deficient mutant D27N XylE (PSS currents, electrogenic binding); assay type: biochemical
T5 construct: made in house; host or cells: E. coli BL21 DE3
Description: as §1, §2, §3, §4, §5, §6, §7

D46N FucP = target: T6, D46N FucP (Escherichia coli, UniProt P11551, D46N); test: SSM-based electrophysiology, transport-deficient mutant D46N FucP (PSS currents); assay type: biochemical
T6 construct: made in house; host or cells: E. coli BL21 DE3
Description: as §1, §2, §3, §4, §5, §6, §7

XylE [1] = conditions: uptake and competition-uptake assays; cited from earlier work
XylE [2] = target: XylE; design: method as in PMID 23075985; conditions: read-out: KD, isothermal titration calorimetry; cited from earlier work
[3] = EC50,1, double Michaelis–Menten fit, pH 7.6, peak currents
[4] = EC50,2, double Michaelis–Menten fit, pH 7.6, peak currents
[5] = pH 7.6, peak currents, Hill equation
[6] = reconstructed transporter currents, alkaline range, double titration

T4 sequence (P0AGF4 whole entry Q175I/L297F): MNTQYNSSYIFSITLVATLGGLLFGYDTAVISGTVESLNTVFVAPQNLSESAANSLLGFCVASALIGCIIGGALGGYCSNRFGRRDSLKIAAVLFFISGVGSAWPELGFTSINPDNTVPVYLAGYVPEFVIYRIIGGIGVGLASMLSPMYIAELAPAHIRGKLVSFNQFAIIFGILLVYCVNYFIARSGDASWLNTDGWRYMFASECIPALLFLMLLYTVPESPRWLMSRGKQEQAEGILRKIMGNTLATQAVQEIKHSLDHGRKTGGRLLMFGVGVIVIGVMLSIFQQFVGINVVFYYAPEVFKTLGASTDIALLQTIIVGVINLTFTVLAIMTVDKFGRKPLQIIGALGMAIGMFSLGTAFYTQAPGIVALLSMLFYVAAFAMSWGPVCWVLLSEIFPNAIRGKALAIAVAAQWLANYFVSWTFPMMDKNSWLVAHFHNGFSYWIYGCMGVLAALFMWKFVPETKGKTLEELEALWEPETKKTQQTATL
T1 sequence (P02920 whole entry E325A): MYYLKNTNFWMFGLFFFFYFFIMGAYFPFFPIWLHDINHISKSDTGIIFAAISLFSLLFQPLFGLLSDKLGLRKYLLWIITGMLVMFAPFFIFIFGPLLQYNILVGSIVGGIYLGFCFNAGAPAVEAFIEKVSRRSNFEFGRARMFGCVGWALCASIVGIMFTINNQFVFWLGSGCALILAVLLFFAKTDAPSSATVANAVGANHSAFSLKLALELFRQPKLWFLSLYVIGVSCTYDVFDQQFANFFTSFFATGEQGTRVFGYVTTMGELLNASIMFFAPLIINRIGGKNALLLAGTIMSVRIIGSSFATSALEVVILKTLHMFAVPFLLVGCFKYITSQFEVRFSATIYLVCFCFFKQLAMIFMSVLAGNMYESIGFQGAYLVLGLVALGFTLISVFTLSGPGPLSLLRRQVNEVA
Chain of wt XylE (P0AGF4 whole entry): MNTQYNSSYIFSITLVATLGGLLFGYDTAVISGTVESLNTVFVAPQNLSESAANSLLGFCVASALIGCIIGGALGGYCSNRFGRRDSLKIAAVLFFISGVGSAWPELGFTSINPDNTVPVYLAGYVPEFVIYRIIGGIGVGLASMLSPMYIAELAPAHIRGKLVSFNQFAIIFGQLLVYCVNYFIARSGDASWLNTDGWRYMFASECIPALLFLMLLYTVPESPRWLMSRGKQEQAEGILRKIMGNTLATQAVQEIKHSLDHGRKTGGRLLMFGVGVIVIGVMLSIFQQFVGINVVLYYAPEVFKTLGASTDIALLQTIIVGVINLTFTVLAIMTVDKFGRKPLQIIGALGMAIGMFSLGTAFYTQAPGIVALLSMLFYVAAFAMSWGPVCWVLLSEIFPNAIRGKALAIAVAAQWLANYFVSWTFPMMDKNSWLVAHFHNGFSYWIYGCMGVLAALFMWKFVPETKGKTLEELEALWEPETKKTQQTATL
T5 sequence (P0AGF4 whole entry D27N): as the sequence (P0AGF4 whole entry Q175I/L297F) above, with D27N, I175Q, F297L counted along it
T6 sequence (P11551 whole entry D46N): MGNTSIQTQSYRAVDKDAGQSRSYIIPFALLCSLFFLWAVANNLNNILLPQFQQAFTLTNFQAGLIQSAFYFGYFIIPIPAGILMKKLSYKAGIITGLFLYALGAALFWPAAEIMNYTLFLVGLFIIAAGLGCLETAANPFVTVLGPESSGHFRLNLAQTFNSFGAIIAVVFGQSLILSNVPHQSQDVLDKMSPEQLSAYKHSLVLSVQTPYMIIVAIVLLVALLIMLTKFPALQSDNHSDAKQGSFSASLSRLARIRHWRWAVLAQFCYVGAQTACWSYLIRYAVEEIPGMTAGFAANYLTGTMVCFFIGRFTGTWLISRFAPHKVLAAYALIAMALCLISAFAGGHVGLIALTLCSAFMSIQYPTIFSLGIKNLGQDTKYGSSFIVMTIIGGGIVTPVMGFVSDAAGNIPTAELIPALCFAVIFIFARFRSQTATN

## 6-Deoxy-D-glucose
Wt XylE; pH 7.0
  induction of currents (substrate identification): generated signals identifying them as substrates
Wt XylE; pH 7.6
  Imax in percent of Imax of the main substrate (D-xylose): 35 ± 5%
Wt XylE; pH 7.6, minor substrate, peak currents, low time-resolution set up, read-out: KM (mM) Michaelis–Menten equation
  Km: 0.2 ± 0.05 mM

## OC[C@H]1O[C@@H](O[C@@H]2[C@@H](CO)OC(O)(CO)[C@H]2O)[C@H](O)[C@@H](O)[C@H]1O (mixture of isomers) [Lactulose]
E325A LacY
  Kd: 5000 ± 600 µM
E325A LacY; pH 7.6, saturating substrate (100 mM D-lactose, lactulose; 5 mM TDG)
  Q (pC) Mut, transferred charge: 2.2 ± 0.5 (pH 7.6) pC
E325A LacY; saturating substrate (100 mM D-lactose, lactulose; 5 mM TDG), kobs = 1/τ, limited by time resolution
  kobs (s^−1) mut: 380 ± 40 s⁻¹
Wt LacY; EC50,1, double Michaelis–Menten fit, peak currents
  EC50: 880 ± 100 µM
Wt LacY; EC50,2, double Michaelis–Menten fit, peak currents
  EC50: 90000 ± 42000 µM
Wt LacY
  Imax in percent of Imax of the main substrate (D-lactose): 71 ± 8%
Wt LacY; peak currents, Hill equation
  n (Hill coefficient): 0.55 ± 0.08

## OC[C@H]1OC(O)[C@@H](O)[C@H](O)[C@@H]1O (stereo partly drawn) [D-altrose]
Wt FucP; pH 8.0
  induction of currents (substrate identification): generated signals identifying them as substrates

## OC1OC[C@@H](O)[C@@H](O)[C@@H]1O (stereo partly drawn) [D-arabinose]
Wt FucP; [3]
  EC50: 820 ± 530 µM
Wt FucP; [4]
  EC50: 38000 ± 9000 µM
Wt FucP; pH 7.6
  Imax in percent of Imax of the main substrate (L-fucose): 132 ± 13%
Wt FucP; [5]
  n (Hill coefficient): 0.62 ± 0.04

## OC[C@H]1OC(O)[C@H](O)[C@@H](O)[C@@H]1O (stereo partly drawn) [D-glucose]
Q175I/L297F XylE; pH 7.6, saturating substrate
  IPeak (pA) fast component: 240 pA and 240 ± 40 pA
Q175I/L297F XylE; reconstructed transporter currents, acidic range
  pKa: 4.6 ± 0.1
Q175I/L297F XylE; [6]
  pKb1: ~7.5 and 7.3 ± 0.1
  pKb2: 9.8 ± 0.2
Wt XylE
  Kb: 0.0398 nM
Wt XylE; [3]
  EC50: 160 ± 10 µM
Wt XylE; [4]
  EC50: 6500 ± 900 µM
Wt XylE; EC50, Hill fit, pH 7.6, peak currents, Hill equation
  EC50: 920 ± 120 µM
Wt XylE; apparent EC50 (half saturation constant, Michaelis–Menten equation; KM column), pH 7.6, D-glucose-induced slow PSS current, not transport
  EC50: 380 µM and 400 µM
Wt XylE; pH 3.0, 30 mM substrate
  Q (pC) wt, PSS transferred charge: 2.5 ± 1 (pH 3.0) pC
Wt XylE; pH 7.0
  slow peak current amplitude compared with D-xylose-induced currents: 26%
Wt XylE; pH 7.6
  Imax in percent of Imax of the main substrate (D-xylose): 26% and 26 ± 5%
Wt XylE; pH 7.6, hyperbolic fit of peak current
  Imax (nA) slow component: 0.47 ± 0.1 nA
Wt XylE; [5]
  n (Hill coefficient): 0.57 ± 0.03
Wt XylE; pH 7.6, saturating substrate, transport current given as upper limit
  IPeak (pA) fast component: <470 pA
Wt XylE; pH-dependent peak currents, acidic range
  pKa: 4.7 ± 0.1
D27N XylE; KD (mM) mut, pH 7.6, hyperbolic fit of peak currents, in Table 3 headed EC50
  Kd: 1.9 ± 0.35 mM
D27N XylE; KD from fit of concentration-dependent kobs, pH 7.6
  Kd: 0.67 ± 0.1 mM
D27N XylE; pH 7.6
  Imax (nA) slow component: <0.05 nA
D27N XylE; pH 7.6, 30 mM substrate
  Q (pC) Mut, transferred charge: 1.1 ± 0.3 (pH 7.6) pC
D27N XylE; pH 7.6, saturating substrate
  IPeak (pA) fast component: 60 pA and 60 ± 25 pA
D27N XylE; saturating substrate (30 mM), kobs = 1/τ, monoexponential fit, limited by time resolution
  kobs (s^−1) mut: 300 ± 40 s⁻¹
D46N FucP
  induction of PSS currents: do not generate PSS currents
XylE [1]
  transport of radioactively labeled sugar: not transported
XylE [2]
  Kd: 770 µM

— publication PMC8784342, “Investigation of sugar binding kinetics of the E. coli sugar/H^+ symporter XylE using solid-supported membrane-based electrophysiology” (The Journal of Biological Chemistry, 2021)
